Common to all, as to assay type: in vivo
Assay [1] deals with LHRH. The assay can be described thus: Anti-LHRH antibody titres induced by different priming and boosting regimes (Example 2). Particulars: Beagles/foxhound dogs, 5 nmoles total peptides (pool p25, p35, p62) with Iscomatrix; for titres of antibodies following the second dose of vaccine: doses week 0, 4, 14, LHRH (2-10) compared with LHRH (6-10). An excerpt:
(§1) Beagles/foxhound dogs were divided into three groups. One group (12 dogs) received three doses of 5 nmoles of total peptides consisting of a pool of peptides p25, p35 and p62 coupled to LHRH (6-10).
(§2) A second group (6 dogs) received three doses of 5 nmoles of total peptides consisting of a pool of peptides p25, p35 and p62 coupled to LHRH (2-10).
(§3) A third group (6 dogs) received three doses of 5 nmoles of total peptides consisting of a pool of peptides p25, p35 and p62 coupled to LHRH (2-10) as the first dose. For the second and third dose the vaccine was the same pool of peptides but coupled to LHRH (6-10).
(§4) The dogs received the three doses of vaccine in week 0, 4 and 14 respectively.
(§5) 1 to 1.5 mg of each of the peptides were weighed out and dissolved in 100 ul of 4 M urea separately. The amounts of the solutions corresponding to 1.7 nmoles of each peptide were mixed and diluted with isotonic saline to the designated dose volume for injection (1 ml per dose). For each dose 150 ug of Iscomatrix•® (CSL, Melbourne, Australia) was also added as adjuvant. The vaccine was given to dogs in the scruff of the neck.

Assay [2] has as its system LHRH. Nature of the assay: Testosterone and progesterone levels in vaccinated dogs (Example 2). The following applies: Beagles/foxhound dogs; two doses; proportion of animals, compared with the other regimes.
Excerpt: as §1, §2, §3, §4, §5

For assay [3], the system named is LHRH. Nature of the assay: Testosterone and progesterone levels following vaccination with LHRH (6-10) or LHRH (4-10) (Example 3). The following applies: Beagles/foxhound dogs, 35 nmoles total peptides, 7-peptide pool with Iscomatrix; for hormone breakthrough: testosterone and progesterone. As for the experimental part: (§6) Beagles/foxhound dogs were divided into two groups. One group (15 dogs) received three doses of 35 nmoles of total peptides consisting of a pool of peptides p4, p10, p24, p25, p27, p35 and p62 coupled to LHRH (6-10).
(§7) A second group (15 dogs) received three doses of 35 nmoles of total peptides consisting of a pool of peptides p4, p10, p24, p25, p27, p35 and p62 coupled to LHRH (4-10).
as §4
(§8) 1 to 1.5 mg of each of the peptides were weighed out and dissolved in 100 ul of 4 M urea separately. The amounts of the solutions corresponding to 5 nmoles of each peptide were mixed and diluted with isotonic saline to the designated dose volume for injection (1 ml per dose). For each dose 150 ug of Iscomatrix•® (CSL, Melbourne, Australia) was also added as adjuvant. The vaccine was given to dogs in the scruff of the neck.

Assay [4] deals with LHRH. The assay can be described thus: Anti-LHRH antibody titres induced by LHRH (6-10) and LHRH (4-10) (Example 3). Particulars: Beagles/foxhound dogs; 35 nmoles total peptides (pool p4, p10, p24, p25, p27, p35, p62) with Iscomatrix; week 0, 4, 14; compared with LHRH (6-10). As for the experimental part: as §6, §7, §4, §8

Where no end group is shown, it is not given here.

Regarding “LHRH (6-10): Vaccine: T helper epitope peptides coupled to LHRH (6-10), Iscomatrix; pool p25, p35, p62 (Example 2) or seven-peptide pool (Example 3) (GLRPG; ends and bridges not checked; also: coupled to T helper peptide pool; UniProt P01148 29-33, looked up, fragment)”, the “titres of antibodies following the second dose of vaccine” value in the assay on LHRH [1] is “little apparent difference”. In the assay on LHRH [2], the levels of progesterone entry is “lower levels” and the levels of testosterone entry is “lower levels”. Further, the hormone breakthrough entry in the assay with LHRH [3] is “hormone breakthrough”.
In the case of “LHRH (2-10): Vaccine: pool of peptides p25, p35 and p62 coupled to LHRH (2-10), with Iscomatrix adjuvant (HWSYGLRPG; ends and bridges not checked; also: coupled to T helper peptide pool; UniProt P01148 25-33, looked up, fragment)”, the “titres of antibodies following the second dose of vaccine” value in the assay with LHRH [1] is “little apparent difference”.
As for “LHRH (2-10)-LHRH (6-10): Regime: p25, p35, p62 pool coupled to LHRH (2-10) as first dose, same pool coupled to LHRH (6-10) for second and third dose (HWSYGLRPG; ends and bridges not checked; also: coupled to T helper peptide pool; UniProt P01148 25-33, looked up, fragment)”, the “titre in the primary antibody response” value in the assay with LHRH [1] (comparison of the three regimes) was “lowest titres”.
“LHRH (4-10): Vaccine: pool of peptides p4, p10, p24, p25, p27, p35 and p62 coupled to LHRH (4-10) (SYGLRPG), with Iscomatrix adjuvant”: in the assay on LHRH [4], the titres of antibodies result is given as “Higher titres”. Also, in the assay on LHRH [3] (compared with LHRH (6-10)), the “effect on progesterone levels” value is recorded as “more striking effect” and the “effect on testosterone levels” value was “more striking effect”. Moreover, in the assay with LHRH [3], the hormone breakthrough result is listed as “no animals show hormone breakthrough”.

These data come from US20090105155A1, “TRUNCATED LHRH FORMULATIONS” (priority 2004, published 2009).
